The target in assay [1] is T1, PPARγ (Homo sapiens, UniProt P37231).
T1 construct: Following the challenge of the preadipocytes, cells may be lysed with lysis buffer; endogenous in cells; host or cells: preadipocytes
T1 sequence (P37231 1-505): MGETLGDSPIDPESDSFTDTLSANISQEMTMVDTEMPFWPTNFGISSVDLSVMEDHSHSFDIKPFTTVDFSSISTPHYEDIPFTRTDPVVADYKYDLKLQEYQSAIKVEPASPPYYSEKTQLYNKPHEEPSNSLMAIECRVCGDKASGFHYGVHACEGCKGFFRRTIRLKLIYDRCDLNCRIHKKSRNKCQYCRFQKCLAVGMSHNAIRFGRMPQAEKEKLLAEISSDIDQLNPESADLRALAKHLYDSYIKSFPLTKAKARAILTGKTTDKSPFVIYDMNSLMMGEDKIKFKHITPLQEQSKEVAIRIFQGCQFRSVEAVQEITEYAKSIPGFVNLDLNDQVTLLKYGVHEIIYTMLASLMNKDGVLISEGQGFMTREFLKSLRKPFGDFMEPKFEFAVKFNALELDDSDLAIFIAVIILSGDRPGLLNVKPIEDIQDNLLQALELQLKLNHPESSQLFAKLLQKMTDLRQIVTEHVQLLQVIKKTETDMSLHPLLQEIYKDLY
In words: aP2 Assay for PPAR gamma Agonists (bDNA aP2 mRNA in preadipocytes). The class given is cell-based. The following applies: fold induction; PPARγ standard: FI = 70.3. An excerpt: aP2 Assay for PPAR gamma Agonists
The procedure is described in detail in Burris et al., Molecular Endocrinology, 1999, 13:410, which is hereby incorporated by reference in its entirety, and aP2 assay results of agonist intrinsic activity may be presented as fold increase over vehicle in induction of aP2 mRNA production.
Twenty-four hours after the initial seeding of the 96-well plates by hand (around 20,000/well), the differentiation assay may be initiated. Medium may be removed and replaced with […] of differentiation medium containing vehicle (DMSO) or test compounds. Cells may be returned to incubator for 24 hours culture. At the termination of the challenge, medium may be removed and 100 ul of lysis buffer may be added to initiate the bDNA aP2 mRNA assay. The branched DNA assay may be performed according to the manufacturer's protocol (Bayer Diagnostics; Emeryville, Calif.). Result may be expressed as the fold increase of aP2 mRNA production activated over vehicle controls. EC50's and Emax may be determined by non-linear regression with a sigmoidal fit curve.
Following the challenge of the preadipocytes, cells may be lysed with lysis buffer (Bayer Diagnostics) containing the aP2 oligonucleotides. After a 15 minute incubation at 53° C. or 30 minutes at 37° C. incubator, 70 ul of the lysis buffer from each well may be added to a corresponding capture well (preincubated with 70 ul of blocking buffer (Bayer Diagnostics)). The capture plate may be incubated overnight at 53° C. in a plate incubator (Bayer Diagnostics). After this incubation, the bDNA and labeled probes may be annealed as directed by the manufacturer. Following a 30-minute incubation with the luminescent alkaline phosphatase substrate, dioxitane, the luminescence may be quantitated in a Dynex MLX microtiter plate luminometer. Oligonucleotide probes designed to anneal to the aP2 mRNA and function in the bDNA mRNA detection system are designed with ProbeDesigner software (Bayer Diagnostics). This software package analyzes a target sequence of interest with a series of algorithms in order to determine which regions of the sequence can perform as locations for capture, label, or spacer probe annealing. The sequences of the oligonucleotides are as follows: […]

Assay [2] addresses T2, PPARα (Rattus norvegicus, UniProt P37230).
T2 construct: H4IIE rat hepatoma cell line was obtained from ATCC; host or cells: H4IIE rat hepatoma cells
T2 sequence (P37230 1-468): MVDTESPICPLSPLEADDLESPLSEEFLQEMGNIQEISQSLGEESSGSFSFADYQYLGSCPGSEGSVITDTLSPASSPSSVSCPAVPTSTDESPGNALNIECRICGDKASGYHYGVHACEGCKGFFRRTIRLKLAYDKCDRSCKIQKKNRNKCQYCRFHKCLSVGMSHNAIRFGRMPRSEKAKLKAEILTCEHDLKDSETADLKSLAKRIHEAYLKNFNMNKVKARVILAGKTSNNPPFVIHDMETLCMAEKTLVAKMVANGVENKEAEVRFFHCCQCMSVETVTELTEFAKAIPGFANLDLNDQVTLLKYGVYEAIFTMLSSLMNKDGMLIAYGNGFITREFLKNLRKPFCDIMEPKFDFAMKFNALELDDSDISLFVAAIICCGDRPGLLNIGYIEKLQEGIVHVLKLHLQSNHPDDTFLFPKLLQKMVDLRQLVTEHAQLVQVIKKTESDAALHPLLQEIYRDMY
The assay can be described thus: HD bDNA Assay (HD gene induction). The class given is cell-based. The note with it: in section F; target not named there, values match the PPARα column; read-out: EC50. Summed up: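 H4IIE rat hepatoma cells (~100,000/well) treated 24 hours at 37° C in low-serum medium (5% charcoal/dextran-treated calf serum) with compounds. HD mRNA quantified by branched DNA luminescence assay; EC50's from sigmoidal non-linear regression.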

Assay [3] concerns the target T3, PPARδ (Homo sapiens, UniProt Q03181).
T3 construct: a Gal4-Luciferase reporter is co-transfected
T3 sequence (Q03181 171-441 limits assumed): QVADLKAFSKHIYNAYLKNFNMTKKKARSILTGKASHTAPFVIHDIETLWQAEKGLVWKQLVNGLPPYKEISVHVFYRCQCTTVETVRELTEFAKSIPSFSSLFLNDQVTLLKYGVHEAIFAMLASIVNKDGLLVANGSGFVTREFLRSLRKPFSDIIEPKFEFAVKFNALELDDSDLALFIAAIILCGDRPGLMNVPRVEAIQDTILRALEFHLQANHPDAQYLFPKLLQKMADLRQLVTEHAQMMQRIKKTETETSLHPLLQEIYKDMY
The assay can be described thus: Transfection Assay for PPARδ Receptors (PPAR-Gal4 / Gal4-Luciferase reporter in HEK293 cells). The following applies: fold induction; PPARδ standard: FI = 36.1. The class given is cell-based. Summed up: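 HEK293 cells co-transfected with PPAR-Gal4 receptor and Gal4-luciferase reporter, then moved into 5% charcoal-treated FBS medium. Compounds applied for 24 h at 37 °C, 5% CO2; luciferase activity read with Steady-Glo.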
(In a reporter assay the amount or activity of a reporter protein is the signal.)

The test system of assay [4] is db/db mice. In words: Oral dosing in female db/db mice. The class given is in vivo. The note with it: Mus musculus, 1.0 mpk, % change compared to vehicle. The method, then: The compound was prepared as suspensions in 0.5% hydroxypropylmethylcellulose (Dow Chemical, Midland, Mich.). The dosing volume was 10 mL/kg of body weight. […] Body weight was measured in the mornings on Day 1, prior to dosing, and on Day 12 before bleeding. 18-24 hours after the final dose for each group, the mice were anesthetized with CO2/O2 (70:30) and bled by retro-orbital sinus puncture into micro-tubes containing clog activator and then put in ice. The serum samples were prepared by centrifugation. Serum glucose and triglycerides were determined by using COBAS Mira Plus blood chemistry analyzer (Roche Diagnostics, N.J.). Serum insulin was measured by using ALPCO insulin ELISA kit.
Statistical analysis was performed using the program Prism (Graphpad, Monrovia, Calif.) and performing one-way ANOVA with a Dunnet's multiple comparison test.

Assay [5] can be described thus: Comparison of (S) and (R) isomer activity (test not stated). The note with it: chiral center on C-2 of the indane ring.
The mark [6] stands for this setting: 120 h, 5 day oral dosing, read-out: Δ BW.
Setting [7] is: 120 h, 5 day oral dosing, read-out: Δ Plasma Glucose.
Setting [8] is: 120 h, 5 day oral dosing, read-out: Δ Plasma Insulin.
[9] abbreviates: 120 h, 5 day oral dosing, read-out: Δ Plasma TG.

From patent publication US20040171680A1, “Treating Syndrome X with substituted tetralins and indanes” (priority 2002, published 2004) come the findings set out here.

pEC50: −log10 of the molar value. Read-outs that look alike come from different tables or passages of the source.

Regarding `CCN(C(=O)Nc1ccc(OC(F)(F)F)cc1)C1Cc2ccc(SC(C)(C)C(=O)O)cc2C1` (centres unmarked) [Example 2, 2-{2-[1-Ethyl-3-(4-trifluoromethoxyphenyl)ureido]indan-5-ylsulfanyl}-2-methylpropionic acid], the “PPARγ FI” value in assay [1] is on record as 0.24. In addition, in assay [2], the pEC50 is 7.57. For the same compound, the “PPARδ FI” value in assay [3] is listed as 4.2. For the same compound, the change in vivo at 1 mg/kg in assay [4] (setting [6]) is -59%; in assay [4] (264 h, 11 day oral dosing, read-out: Δ Plasma Glucose), -60%; in assay [4] (264 h, 11 day oral dosing, read-out: Δ Plasma Insulin), -53%; in assay [4] (264 h, 11 day oral dosing, read-out: Δ Plasma TG) it was -56%.

On to `CCN(C(=O)Nc1ccc(OC(F)(F)F)cc1)[C@H]1Cc2ccc(SC(C)(C)C(=O)O)cc2C1` [Example 3, (S)-2-{2-[1-Ethyl-3-(4-trifluoromethoxyphenyl)ureido]indan-5-ylsulfanyl}-2-methylpropionic acid], for which the “activity of the (S) isomer compared with the (R) isomer” value in assay [5] was “the (S) isomer is more active than the (R) isomer”. Also, the change in vivo at 1 mg/kg in assay [4] (setting [7]) was -66%; in assay [4] (setting [8]), -69%; in assay [4] (setting [9]), -66%; in assay [4] (264 h, 11 day oral dosing, read-out: Δ BW), -136%.

For `CCCCCN(C(=O)Nc1ccc(SC(F)(F)F)cc1)C1Cc2ccc(SC(C)(C)C(=O)O)cc2C1` (centres unmarked) [Example 5, 2-Methyl-2-{2-[1-pentyl-3-(4-trifluoromethylsulfanylphenyl)ureido]indan-5-ylsulfanyl}propionic acid], the “PPARγ FI” value in assay [1] worked out at 4.0. Besides, the pEC50 in assay [2] was 7.28. Besides, the “PPARδ FI” value in assay [3] was 2.5. The change in vivo at 1 mg/kg in assay [4] (setting [6]) is 56%; in assay [4] (setting [7]), -31%; in assay [4] (setting [8]) it was -43%; in assay [4] (setting [9]), -19%.

As to `CCN(C(=O)Nc1ccc(C(C)C)cc1)C1Cc2ccc(SC(C)(C)C(=O)O)cc2C1` (centres unmarked) [Example 6, 2-{2-[1-Ethyl-3-(4-isopropylphenyl)ureido]indan-5-ylsulfanyl}-2-methylpropionic acid], the “PPARγ FI” value in assay [1] was determined as 1.9. In addition, in assay [2], the pEC50 was 7.25. The “PPARδ FI” value in assay [3] turned out to be 3.6. Also, the change in vivo at 1 mg/kg in assay [4] (setting [6]) was -54%; in assay [4] (setting [7]) it was -49%; in assay [4] (setting [8]) it was -19%; in assay [4] (setting [9]) it was -50%.

With `CCN(C(=O)Nc1ccc(N(C)C)cc1)C1Cc2ccc(SC(C)(C)C(=O)O)cc2C1` (centres unmarked) [Example 7, 2-{2-[3-(4-Dimethylaminophenyl)-1-ethylureido]indan-5-ylsulfanyl}-2-methylpropionic acid], the “PPARγ FI” value in assay [1] is 0. In assay [2], the negative logarithm of the EC50 (pEC50) is 7.12. In addition, the “PPARδ FI” value in assay [3] came out at 0.8. The change in vivo at 1 mg/kg in assay [4] (setting [6]) was -27%; in assay [4] (setting [7]), -44%; in assay [4] (setting [8]) it was -40%; in assay [4] (setting [9]), -63%.

On to `CCCCCN(C(=O)Nc1ccc(OC(F)(F)F)cc1)C1Cc2ccc(SC(C)(C)C(=O)O)cc2C1` (centres unmarked) [Example 8, 2-Methyl-2-{2-[1-pentyl-3-(4-trifluoromethoxyphenyl)ureido]indan-5-ylsulfanyl}-2-methylpropionic acid], for which the “PPARγ FI” value in assay [1] came out at 1.9. The pEC50 in assay [2] was 7.14. The “PPARδ FI” value in assay [3] was 5.9. The change in vivo at 1 mg/kg in assay [4] (setting [6]) is -2%; in assay [4] (setting [7]) it was -28%; in assay [4] (setting [8]), -38%; in assay [4] (setting [9]) it was -27%.

Consider `CCCCCN(C(=O)Nc1ccc(N(C)C)cc1)C1Cc2ccc(SC(C)(C)C(=O)O)cc2C1` (centres unmarked) [Example 9, 2-{2-[3-(4-Dimethylaminophenyl)-1-pentylureido]indan-5-ylsulfanyl}-2-methylpropionic acid], for which, in assay [1], the “PPARγ FI” value was 2.9. Moreover, in assay [2], the pEC50 is 6.88. In addition, the “PPARδ FI” value in assay [3] came out at 1.0. In addition, the change in vivo at 1 mg/kg in assay [4] (setting [6]) is 0.05%; in assay [4] (setting [7]), -13%; in assay [4] (setting [8]), -40%; in assay [4] (setting [9]), -6%.

The pEC50 is the negative decadic logarithm of the EC50, by convention in mol/L.
